The source of these data is US20030091627A1, “Rate-controlled delivery of macrolides” (priority 2001, published 2003).

Data set [1] in a line: Solubility of clarithromycin along the gastrointestinal tract. Type of data set: physicochemical.
The nature of data set [2]: Solubility of clarithromycin as a function of pH (tested in water without a buffer). Type of data set: physicochemical.
For data set [3] the following is noted: acidic pH; cited from earlier work.

In brackets after ≈: the same amount, converted by molar mass.

Usually solubility stands for the concentration that dissolves in the medium under given conditions. Regarding `CC[C@H]1OC(=O)[C@H](C)[C@@H](O[C@H]2C[C@@](C)(OC)[C@@H](O)[C@H](C)O2)[C@H](C)[C@@H](O[C@@H]2O[C@H](C)C[C@H](N(C)C)[C@H]2O)[C@](C)(OC)C[C@@H](C)C(=O)[C@H](C)[C@@H](O)[C@]1(C)O` [Clarithromycin], the solubility entry in data set [1] (colon, pH 7.5 to 8.5) was “about insoluble”; in data set [1] (duodenum (region of the gastrointestinal tract), read-out: Solubility), 5000 µg/mL (≈ 6.68 mM); in data set [1] (stomach (region of the gastrointestinal tract), read-out: Solubility) it was 10000 µg/mL (≈ 13.4 mM); in data set [2] (aqueous buffer, pH 2.4, water without a buffer, read-out: Solubility) it was ~10000 µg/mL (≈ 13.4 mM); in data set [2] (aqueous buffer, pH 5.4, water without a buffer, read-out: Solubility), ~5500 µg/mL (≈ 7.35 mM); in data set [2] (pH 7.4, water without a buffer) it was “about negligible”. In addition, in data set [3], the Stability entry is listed as “stable at an acidic pH”.
